Structures can show the parent of a compound that is named as a salt.
Key:
[1] = system: A431 cells (human epidermoid carcinoma); test: In vitro tumor cell proliferation assay (Cell Titer-Glo luminescent cell viability), A431; assay type: cell-based; conditions: A-431, 72 h, 72 hours of drug exposure, ATP luminescence readout, read-out: IC50, anti-proliferative activity (inhibition of cell proliferation)
Method in brief: (§1)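 IC50 values reflect ATP-based luminescence (CellTiter-Glo) after 72 h compound exposure at 37°C. Both lines, A431 and BT474, were plated in RPMI with 10% FBS and received serial dilutions ranging from 100 μM to 64 pM final at 0.1% DMSO.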

[2] = system: BT474 (human breast carcinoma); test: In vitro tumor cell proliferation assay (Cell Titer-Glo luminescent cell viability), BT474; assay type: cell-based; conditions: BT-474, 72 h, BT474 cells, 72 hours of drug exposure, ATP luminescence readout, read-out: IC50, anti-proliferative activity (inhibition of cell proliferation)
Method in brief: as §1

Compound `CCOC(=O)Cn1cc2c(n1)CCc1c-2sc2ncnc(Nc3ccc(OCc4cccc(F)c4)c(Cl)c3)c12` [Example 174] has an IC50 [1] of no more than 50 µM and an IC50 [2] of no more than 1 µM.
For `Cc1cccc(COc2ccc(Nc3ncnc4sc5c(c34)CCc3nn(CCO)cc3-5)cc2Cl)n1` [Example 115], the IC50 [1] was no more than 50 µM and the IC50 [2] was no more than 1 µM.
`Fc1cccc(COc2ccc(Nc3ncnc4sc5c(c34)CCc3c-5cnn3CCN3CCCC3)cc2Cl)c1` [Example 87, N-{3-chloro-4-[(3-fluorobenzyl)oxy]phenyl}-3-(2-pyrrolidin-1-ylethyl)-4,5-dihydro-3H-pyrimido[5′,4′:4,5]thieno[2,3-e]indazol-6-amine] gave an IC50 [1] of no more than 5 µM and an IC50 [2] of no more than 1 µM.
`COCCN(C)CCn1ncc2c1CCc1c-2sc2ncnc(Nc3ccc(OCc4cccc(F)c4)c(Cl)c3)c12` [Example 261, N-{3-chloro-4-[(3-fluorobenzyl)oxy]phenyl}-3-{2-[(2-methoxyethyl)(methyl)amino]ethyl}-4,5-dihydro-3H-pyrimido[5′,4′:4,5]thieno[2,3-e]indazol-6-amine] gave an IC50 [1] of no more than 50 µM and an IC50 [2] of no more than 1 µM.
With `OCCn1cc2c(n1)CCc1c-2sc2ncnc(Nc3ccc(OCc4ccccc4)c(Cl)c3)c12` [Example 124, 2-(6-{[4-(benzyloxy)-3-chlorophenyl]amino}-4,5-dihydro-2H-pyrimido[5′,4′:4,5]thieno[2,3-e]indazol-2-yl)ethanol] the IC50 [1] was no more than 50 µM and the IC50 [2] was no more than 1 µM.
`Fc1cccc(COc2ccc(Nc3ncnc4sc5c(c34)CCc3nn(CCNCCN4CCOCC4)cc3-5)cc2Cl)c1` [Example 68, N-{3-chloro-4-[(3-fluorobenzyl)oxy]phenyl}-2-{2-[(2-morpholin-4-ylethyl)amino]ethyl}-4,5-dihydro-2H-pyrimido[5′,4′:4,5]thieno[2,3-e]indazol-6-amine] was tested, and the IC50 [1] was no more than 5 µM and the IC50 [2] was no more than 1 µM.
For `CN1CCN(CCn2cc3c(n2)CCc2c-3sc3ncnc(Nc4ccc5c(cnn5Cc5ccccc5)c4)c23)CC1` [Example 39, N-(1-benzyl-1H-indazol-5-yl)-2-[2 (4-methylpiperazin-1-yl)ethyl]-4,5-dihydro-2H-pyrimido[5′,4′:4,5]thieno[2,3-e]indazol-6-amine], the IC50 [1] was no more than 50 µM and the IC50 [2] was no more than 1 µM.
Compound `Cc1ccc(Nc2ncnc3sc4c(c23)CCc2nn(CCN3CCN(C)CC3)cc2-4)cc1O` [Example 329, 2-methyl-5-({2-[2-(4-methylpiperazin-1-yl)ethyl]-4,5-dihydro-2H-pyrimido[5′,4′:4,5]thieno[2,3-e]indazol-6-yl}amino)phenol] has an IC50 [1] of no more than 5 µM and an IC50 [2] of no more than 5 µM.
`O=C(Cn1ncc2c1CCc1c-2sc2ncnc(Nc3ccc(OCc4cccc(F)c4)c(Cl)c3)c12)NCCN1CCOCC1` [Example 197, 2-[6-({3-chloro-4-[(3-fluorobenzyl)oxy]phenyl}amino)-4,5-dihydro-3H-pyrimido[5′,4′:4,5]thieno[2,3-e]indazol-3-yl]-N-(2-morpholin-4-ylethyl)acetamide] gave an IC50 [1] of no more than 50 µM and an IC50 [2] of no more than 1 µM.
For `COc1ccc(Nc2ncnc3sc4c(c23)CCc2nn(CCN3CCN(C)CC3)cc2-4)cc1Cl` [Example 52, N-(3-chloro-4-methoxyphenyl)-2-[2-(4-methylpiperazin-1-yl)ethyl]-4,5-dihydro-2H-pyrimido[5′,4′:4,5]thieno[2,3-e]indazol-6-amine], the IC50 [1] was no more than 50 µM and the IC50 [2] was no more than 5 µM.
With `OCCn1ncc2c1CCc1c-2sc2ncnc(Nc3ccc(OCc4cccc(F)c4)c(Cl)c3)c12` [Example 80, 2-[6-({3-chloro-4-[(3-fluorobenzyl)oxy]phenyl}amino)-4,5-dihydro-3H-pyrimido[5′,4′:4,5]thieno[2,3-e]indazol-3-yl]ethanol] the IC50 [1] was no more than 5 µM and the IC50 [2] was no more than 1 µM.
In the case of `CN1CCN(CCn2cc3c(n2)CCc2c-3sc3ncnc(Nc4ccc(OCc5ccc(Cl)cc5)c(Cl)c4)c23)CC1` [Example 331, N-{3-chloro-4-[(4-chlorobenzyl)oxy]phenyl}-2-[2-(4-methylpiperazin-1-yl)ethyl]-4,5-dihydro-2H-pyrimido[5′,4′:4,5]thieno[2,3-e]indazol-6-amine], the IC50 [1] is reported as no more than 5 µM and the IC50 [2] is reported as no more than 1 µM.
Work on `CN1CCN(C[C@@H](O)Cn2cc3c(n2)CCc2c-3sc3ncnc(Nc4ccc(OCc5cccc(F)c5)c(Cl)c4)c23)CC1` [Example 136, (2R)-1-[6-({3-chloro-4-[(3-fluorobenzyl)oxy]phenyl}amino)-4,5-dihydro-2H-pyrimido[5′,4′:4,5]thieno[2,3-e]indazol-2-yl]-3-(4-methylpiperazin-1-yl)propan-2-ol] yielded an IC50 [1] of no more than 50 µM and an IC50 [2] of no more than 1 µM.
In the case of `Fc1cccc(COc2ccc(Nc3ncnc4sc5c(c34)CCc3c-5cnn3CCCN3CCCC3)cc2Cl)c1` [Example 272], the IC50 [1] is reported as no more than 5 µM and the IC50 [2] is reported as no more than 1 µM.
`O=C(Cn1ncc2c1CCc1c-2sc2ncnc(Nc3ccc(OCc4cccc(F)c4)c(Cl)c3)c12)Nc1ccccn1` [Example 195, 2-[6-({3-chloro-4-[(3-fluorobenzyl)oxy]phenyl}amino)-4,5-dihydro-3H-pyrimido[5′,4′:4,5]thieno[2,3-e]indazol-3-yl]-N-pyridin-2-ylacetamide] gave an IC50 [1] of no more than 50 µM and an IC50 [2] of no more than 1 µM.
`CCCn1ncc2c1CCc1c-2sc2ncnc(Nc3ccc(OCc4cccc(F)c4)c(Cl)c3)c12` [Example 131, N-{3-chloro-4-[(3-fluorobenzyl)oxy]phenyl}-3-propyl-4,5-dihydro-3H-pyrimido[5′,4′:4,5]thieno[2,3-e]indazol-6-amine trifluoroacetate] was tested, and the IC50 [1] was no more than 50 µM and the IC50 [2] was no more than 1 µM.
`OCCn1cc2c(n1)CCc1c-2sc2ncnc(Nc3ccc(F)c(Cl)c3)c12` [Example 1, 2-{6-[(3-chloro-4-fluorophenyl)amino]-4,5-dihydro-2H-pyrimido[5′,4′:4,5]thieno[2,3-e]indazol-2-yl}ethanol] was tested, and the IC50 [1] was no more than 5 µM and the IC50 [2] was no more than 1 µM.
Compound `Fc1ccc(Nc2ncnc3sc4c(c23)CCc2nn(CCN3CCN(Cc5ccncc5)CC3)cc2-4)cc1Cl` [Example 14, N-(3-chloro-4-fluorophenyl)-2-{2-[4-(pyridin-4-ylmethyl)piperazin-1-yl]ethyl}-4,5-dihydro-2H-pyrimido[5′,4′:4,5]thieno[2,3-e]indazol-6-amine] has an IC50 [1] of no more than 5 µM and an IC50 [2] of no more than 5 µM.
With `OC(CN1CCOCC1)Cn1cc2c(n1)CCc1c-2sc2ncnc(Nc3ccc(OCc4cccc(F)c4)c(Cl)c3)c12` (stereo not drawn) [Example 135, 1-[6-({3-chloro-4-[(3-fluorobenzyl)oxy]phenyl}amino)-4,5-dihydro-2H-pyrimido[5′,4′:4,5]thieno[2,3-e]indazol-2-yl]-3-morpholin-4-ylpropan-2-ol] the IC50 [1] was no more than 50 µM and the IC50 [2] was no more than 1 µM.
Work on `CN1CCN(CCn2cc3c(n2)CCc2c-3sc3ncnc(Nc4ccc(OCc5cccc(C(F)(F)F)c5)c(Cl)c4)c23)CC1` [Example 328, N-(3-chloro-4-{[3-(trifluoromethyl)benzyl]oxy}phenyl)-2-[2-(4-methylpiperazin-1-yl)ethyl]-4,5-dihydro-2H-pyrimido[5′,4′:4,5]thieno[2,3-e]indazol-6-amine] yielded an IC50 [1] of no more than 5 µM and an IC50 [2] of no more than 5 µM.
`OCCNCCn1cc2c(n1)CCc1c-2sc2ncnc(Nc3ccc(OCc4cccc(F)c4)c(Cl)c3)c12` [Example 61, 2-({2-[6-({3-chloro-4-[(3-fluorobenzyl)oxy]phenyl}amino)-4,5-dihydro-2H-pyrimido[5′,4′:4,5]thieno[2,3-e]indazol-2-yl]ethyl}amino)ethanol] was tested, and the IC50 [1] was no more than 5 µM and the IC50 [2] was no more than 1 µM.
